B1: Ii Hook: previously described Invariant chain-based Hook: streptavidin fused to human invariant chain Ii (Boncompain et al. 2012) (protein)
chain: MHRRRSRSCREDQKPVMDDQRDLISNNEQLPMLGRRPGAPESKCSRGALYTGFSILVTLLLAGQATTAYFLYQQQGRLDKLTVTSQNLQLENLRMKLPKPPKPVSKMRMATPLLMQALPMGALPQGPMQNATKYGNMTEDHVMHLLQNADPLKVYPPLKGSFPENLRHLKNTMETIDWKVFESWMHHWLLFEMSRHSLEQKPTDAPPKESLELEDPSSGLGVTKQDLGPVPM
modifications: left off: large carriers

Legend:
Type in all cases: cell-based
[1] = tested on: scFv (CD19)-GFP-DAP10-sSBP; experiment: Time course release using biotin (RUSH traffic) with soluble mini hook; conditions: HeLa cells, addition of biotin
Experimental: (§1) HeLa cells were cultivated at 37° C. and 5% of CO2 in Dulbecco's modified Eagle medium (DMEM) supplemented with 10%1-BS (Biowest), 1 mM sodium Pyruvate and […] of penicillin and streptomycin (Invitrogen). HeLa cells were transfected with the plasmid of interest using Calcium phosphate protocol in the presence of 25 mM of HEPES. Briefly, the plasmids coding the sequence of CAR based RUSH such as CD3-SBP-NKG2D (SEQ ID NO: 13), scFv(CD19)-GFP-DAP10CD3-sSBP (SEQ ID NO: 23), scFv(CD19)-GFP-DAP10-SBPdel (SEQ ID NO: 24), scFv(CD19)-mycDAP10-SBP (SEQ ID NO: 25) or BACE1-SBP-EGFP (SEQ ID NO: 26) (2.5 ug per 1 mL of final volume) were add to 1 mM tris-HCl pH 8.02 buffer followed by the addition of 10% of CaCl2 and incubated for 5 min (RT). Then this mix was add drop by drop into 2× concentrate HEBS buffer (160 mM NaCl, 1.5 mM Na2HPO4, 50 mM Hepes PH 7.04-7.05) while vortexing. The cells were incubated with this solution overnight at 37° C. and 5% of CO2.
(§2) The cells were seeded into a glass coverslips for fixed cell immunofluorescence and/or live imaging. In the next day the cells were transfected with the plasmids coding the construct of interest as previously described. For the steady state of the protein/construct, 40 μM final concentration of biotin was added (4 mM stock solution) just after addition of the transfection solution. […]

[2] = tested on: scFv (CD19)-GFP-DAP10CD3-sSBP; experiment: as above; conditions: HeLa cells, addition of biotin
Experimental: as §1, §2

scFvCD19-Myc-DAP10-sSBP = experiment: Time course release using biotin (RUSH traffic, immunofluorescence) with Str-endoKKXX hook; conditions: HeLa cells, addition of biotin (40 μM)
Experimental: as §1, §2

[3] = tested on: BACE1-GFP-SBP (BACE1-RUSH); experiment: Retention, ALiS-1 release and wash-out retrieval from the cell surface; conditions: HeLa cells
Experimental: as §1
Biotin-mimetic molecule ALiS-1 was prepared in DMSO to 20 mM (stock solution) and the cells were treated with 40 μM final concentration to prevent the interaction between the reporter (target membrane protein) and the hook.
Cells coated in the coverslips were washed once in 1×PBS buffer, fixed in 3% of paraformaldehyde (PFA) (10-15 min, RT), washed (2×) and incubated with 50 mM of NH4Cl (5 min, RT) to quench free aldehydes. […]

| Molecule | release of reporter from the hook [1] | release of reporter from the hook [2] | release of reporter from the hook (scFvCD19-Myc-DAP10-sSBP) | localization of reporter ([3]; absence of releasing molecule (without biotin)) | retrieval of cell surface reporter back to the ER ([3]; washing-out ALiS-1 for 1 hour) |
| --- | --- | --- | --- | --- | --- |
| O=C(O)CCCC[C@@H]1SC[C@@H]2NC(=O)N[C@@H]21 [biotin] | leads to the release | leads to the release | released |  |  |
| B1 |  |  |  | retained in the ER | does not allow to capture cell surface localized BAC1-RUSH |
